Experiments:
[1] = biological target: Murine cytosolic 5'deoxyribnucleotidase mdNT-1 (Mus musculus, UniProt Q9JM14); conditions: Preferred substrate, References: J. Biol. Chem. 275:5409-5415 (1990), Biochemical Pharmacol. 66: 471-479 (2003); cited from earlier work
[2] = biological target: Human cytosolic 5'deoxyribonucleotidase hdNT-1 (Homo sapiens, UniProt Q8TCD5); conditions: Preferred substrate, References: J. Biol. Chem. 265:6589-6595 (1990), Biochemical Pharmacol. 66: 471-479 (2003); cited from earlier work
Chain of Human cytosolic 5'deoxyribonucleotidase hdNT-1 (Q8TCD5 whole entry): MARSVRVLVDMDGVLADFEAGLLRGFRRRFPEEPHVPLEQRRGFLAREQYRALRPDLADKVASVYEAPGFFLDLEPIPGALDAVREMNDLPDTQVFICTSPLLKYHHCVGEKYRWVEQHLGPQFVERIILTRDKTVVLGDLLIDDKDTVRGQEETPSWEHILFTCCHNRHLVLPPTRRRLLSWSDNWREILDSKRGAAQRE

[3] = tested on: PBS2 TMP phosphohydrolase (T001), Thymidylate 5'-phosphohydrolase derived from Bacteriophage PBS2, SEQ ID NO: 3; conditions: Preferred substrate, References: Methods Enzymol. 51:285-290 (1978), Also In house data; cited from earlier work
[4] = biological target: T1, Human mitochondrial 5'doxyribonucleotidase NT5M (hdNT-2) (Homo sapiens, UniProt Q9NPB1); conditions: Preferred substrate, References: Biochem. 46:13809-13818 (2007), Biochemical Pharmacol. 66: 471-479 (2003); cited from earlier work
T1 sequence (Q9NPB1 32-228): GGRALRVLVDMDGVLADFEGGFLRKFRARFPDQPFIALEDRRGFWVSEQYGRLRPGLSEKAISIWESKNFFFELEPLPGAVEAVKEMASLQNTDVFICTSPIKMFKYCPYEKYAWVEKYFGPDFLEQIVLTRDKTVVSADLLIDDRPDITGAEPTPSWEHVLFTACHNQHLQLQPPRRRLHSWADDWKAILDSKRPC

[5] = biological target: T1, Human mitochondrial 5'doxyribonucleotidase NT5M (hdNT-2); assay: Preferred substrate (km), Table 4: NT5M (hdNT-2); format: biochemical; conditions: human NT5M compared with T001, according to Table 4

Chain of Murine cytosolic 5'deoxyribnucleotidase mdNT-1 (Q9JM14 whole entry): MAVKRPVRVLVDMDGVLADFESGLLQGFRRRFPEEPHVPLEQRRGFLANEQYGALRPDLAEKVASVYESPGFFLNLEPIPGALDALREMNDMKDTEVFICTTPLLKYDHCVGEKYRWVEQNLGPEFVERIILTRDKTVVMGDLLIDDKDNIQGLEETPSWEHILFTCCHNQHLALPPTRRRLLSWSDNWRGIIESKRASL

Compound | Km [1] | Km [2] | Km [3] | Km [4] | affinity for dTMP, times lower [5]
Nc1ncnc2c1ncn2[C@H]1C[C@H](O)[C@@H](COP(=O)(O)O)O1 [dAMP] | 1000 µM | 3000 µM |  |  | 
Nc1nc2c(ncn2[C@H]2C[C@H](O)[C@@H](COP(=O)(O)O)O2)c(=O)[nH]1 [dGMP] | 1200 µM | 3300 µM | 700 µM | 90 µM | 
Cc1cn([C@H]2C[C@H](O)[C@@H](COP(=O)(O)O)O2)c(=O)[nH]c1=O [dTMP, thymidylate] | 1400 µM | 1500 µM | 10 µM | 300 µM | about 30 times
O=c1ccn([C@H]2C[C@H](O)[C@@H](COP(=O)(O)O)O2)c(=O)[nH]1 [dUMP] | 800 µM | 1500 µM | 800 µM | 160 µM | 
